According to patent US20240158348A1, “HERBICIDAL CYCLIC AMIDES N-SUBSTITUTED WITH A HALOALKYLSULFONYLANILIDE GROUP” (FMC Corporation, priority 2021, published 2024):

How the values were obtained:
Format in all cases: in vivo
[1] = test system: oat, wild (wild oat, Avena fatua); assay: Test C preemergence, wild oat; settings: 0 is no effect, 100 is complete control
Outline: (§1)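 Visual injury rating, 0 (no effect) to 100 (complete control), versus untreated controls after 10 or 12 days in the greenhouse. Compounds were formulated in non-phytotoxic solvent plus surfactant and applied either as a directed soil spray at sowing or onto emerged one- to two-leaf plants.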

[2] = test system: ryegrass, Italian (Italian ryegrass, Lolium multiflorum); assay: Test C preemergence, Italian ryegrass; settings: 0 is no effect, 100 is complete control
Outline: as §1

[3] = test system: blackgrass (Alopecurus myosuroides); assay: Test C postemergence, blackgrass; settings: 31 g ai/ha Postemergence; visual injury, 0 to 100 scale (0 no effect, 100 complete control)
Outline: as §1

[4] = test system: goosegrass (Eleusine indica); assay: Test C postemergence, goosegrass; settings: for Goosegrass plant response rating: 31 g ai/ha Postemergence, visual injury, 0 to 100 scale (0 no effect, 100 complete control); for Plant response rating (0 to 100 scale), Goosegrass: 125 g ai/ha Postemergence, 0 is no effect, 100 is complete control
Outline: as §1

[5] = test system: oat, wild (wild oat, Avena fatua); assay: Test C postemergence, wild oat; settings: for Oat, Wild plant response rating: 31 g ai/ha Postemergence, visual injury, 0 to 100 scale (0 no effect, 100 complete control); for Plant response rating (0 to 100 scale), Oat, Wild: 125 g ai/ha Postemergence, 0 is no effect, 100 is complete control
[6] = test system: wheat (Triticum aestivum); assay: Test C postemergence, wheat; settings: for Wheat plant response rating: visual injury, 0 to 100 scale (0 no effect, 100 complete control); for Plant response rating (0 to 100 scale), Wheat: 0 is no effect, 100 is complete control
Outline: as §1

[7] = test system: galium (catchweed bedstraw, Galium aparine); assay: Test C postemergence, galium; settings: for Galium plant response rating: 31 g ai/ha Postemergence, visual injury, 0 to 100 scale (0 no effect, 100 complete control); for Plant response rating (0 to 100 scale), Galium: 125 g ai/ha Postemergence, 0 is no effect, 100 is complete control
[8] = test system: ducksalad (Heteranthera limosa); assay: Test D flooded paddy test, ducksalad; parameters: key: 0 = no effect, 100 = complete control; settings: 250 g ai/ha, Flood; applied to paddy water at 2-leaf stage; visual rating after 13 days; scale 0 (no effect) to 100 (complete control)
Outline: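 Under 3 cm of standing water, kept constant after treatment, 2-leaf plants received compound via the paddy water. Ratings on a 0–100 control scale were assigned visually after 13 greenhouse days; a dash denotes no test result.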

SMILES	Plant response rating (0 to 100 scale), Oat, Wild ([1]; 31 g ai/ha Preemergence)	Plant response rating (0 to 100 scale), Oat, Wild ([1]; 125 g ai/ha Preemergence)	Plant response rating (0 to 100 scale), Ryegrass, Italian ([2]; 31 g ai/ha Preemergence)	Plant response rating (0 to 100 scale), Ryegrass, Italian ([2]; 125 g ai/ha Preemergence)	Blackgrass plant response rating [3]	Goosegrass plant response rating [4]	Plant response rating (0 to 100 scale), Goosegrass [4]	Oat, Wild plant response rating [5]	Plant response rating (0 to 100 scale), Oat, Wild [5]	Wheat plant response rating ([6]; 31 g ai/ha Postemergence)	Plant response rating (0 to 100 scale), Wheat ([6]; 125 g ai/ha Postemergence)	Galium plant response rating [7]	Plant response rating (0 to 100 scale), Galium [7]	Plant response rating, Ducksalad [8]	Wheat plant response rating ([6]; 125 g ai/ha Postemergence)
C#CCO/N=C1\CCN(c2cc(NS(=O)(=O)C(F)(F)F)c(C)cc2C)C1=O [Compound 13, N-[2,4-dimethyl-5-[2-oxo-3-[(2-propyn-1-yloxy)imino]-1-pyrrolidinyl]phenyl]-1,1,1-trifluoromethanesulfonamide]	100	100	40	100	80	70	100	90	90	90	90	100	100	100	
Cc1cc(C)c(N2CCC(O)C2=O)cc1NS(=O)(=O)C(F)(F)F (stereo not drawn) [Compound 14]	10	60	40	100	10	60	90	30	60	60	60	100	100	65	
COC(=O)N(c1cc(N2CCC(OC3CC3)C2=O)c(C)cc1C)S(=O)(=O)C(F)(F)F (stereo not drawn) [Compound 16]	0	0	0	0	0	0	0	0	0	0	0	50	50	0	
CC(=O)N(c1cc(N2CCC(OC3CC3)C2=O)c(C)cc1C)S(=O)(=O)C(F)(F)F (stereo not drawn) [Compound 17]	90	100	100	100	70	90	90	30	70	70	70	90	100	95	
CCOC(=O)N(c1cc(N2CCC(OC3CC3)C2=O)c(C)cc1C)S(=O)(=O)C(F)(F)F (stereo not drawn) [Compound 19]	0	40	0	0	0	0	90	0	30	0	10	30	90	0	
CCCC(=O)OCN(c1cc(N2CCC(OC3CC3)C2=O)c(C)cc1C)S(=O)(=O)C(F)(F)F (stereo not drawn) [Compound 20]	60	100	100	100	90	90	90	30	80	70	70	90	100	90	
Cc1cc(C)c(N(C(=O)OCC(C)C)S(=O)(=O)C(F)(F)F)cc1N1CCC(OC2CC2)C1=O (stereo not drawn) [Compound 21]	30	90	70	100	40	90	90	40	70	10	50	100	100	98	
Cc1cc(C)c(N2CCC(OCC3CC3)C2=O)cc1NS(=O)(=O)C(F)(F)F (stereo not drawn) [Compound 22]	90	100	100	100	20	70	90	20	40	50	60	100	100	90	
Cc1c(N2CCC(OC3CC3)C2=O)cc(N(COC(=O)C(C)(C)C)S(=O)(=O)C(F)(F)F)c(C)c1F (stereo not drawn) [Compound 23]	40	90	30	100	10	30	90	20	50	10	60	90	100	80	
Cc1c(NS(=O)(=O)C(F)(F)F)cc(N2CCC(OC3CCC3)C2=O)c(C)c1F (stereo not drawn) [Compound 25]	40	90	90	100	0	50	90	0	20	50		100	100	75	60
Cc1c(NS(=O)(=O)C(F)(F)F)cc(N2CCC(OC3CC3)C2=O)c(C)c1F (stereo not drawn) [Compound 26]	60	100	90	100	40	80	100	20	50	60		100	100	75	70
Cc1c(N2CCC(OC3CCC3)C2=O)cc(N(COC(=O)C(C)(C)C)S(=O)(=O)C(F)(F)F)c(C)c1F (stereo not drawn) [Compound 28]	0	20	30	90	10	30	70	20	30	20		90	100	70	60
